Source: the NIST ThermoML archive (doi:10.1007/s10765-007-0223-x)
± gives the expanded uncertainty stated by the source.

Test: xn = mol fraction of the nth substance listed
Details: 101 kPa, Liquid; for speed of sound: Single path-length method

For `CCc1ccccc1` [ethylbenzene] + COC(C)(C)C, which mass density (305.65 K, x2 = 0) is on record?
Its mass density is 855.837 ± 0.39 kg/m3.

What about the mass density (305.65 K, x2 = 0.046) of the same compound?
The mass density was 850.573 ± 0.41 kg/m3.

What about the mass density (305.65 K, x2 = 0.106) of the same compound?
The mass density was 843.52 ± 0.42 kg/m3.

And the mass density (305.65 K, x2 = 0.212)?
The mass density was 831.061 ± 0.44 kg/m3.

And the mass density (305.65 K, x2 = 0.299)?
Its mass density is 820.447 ± 0.46 kg/m3.

What about the mass density (305.65 K, x2 = 0.402) of the same compound?
The mass density was 807.578 ± 0.47 kg/m3.

What about the mass density (305.65 K, x2 = 0.503) of the same compound?
Its mass density is 796.166 ± 0.49 kg/m3.

And the mass density (305.65 K, x2 = 0.6)?
The mass density was 782.111 ± 0.52 kg/m3.

What about the mass density (305.65 K, x2 = 0.701) of the same compound?
The mass density was 768.689 ± 0.53 kg/m3.

What about the mass density (305.65 K, x2 = 0.822) of the same compound?
The mass density was 752.062 ± 0.56 kg/m3.

What about the mass density (305.65 K, x2 = 0.899) of the same compound?
The mass density was 741.065 ± 0.58 kg/m3.

And the mass density (305.65 K, x2 = 0.948)?
The mass density was 733.91 ± 0.59 kg/m3.

And the speed of sound (308.15 K, x2 = 0)?
Its speed of sound is 1276.8 ± 2.1 m/s.

And the speed of sound (308.15 K, x2 = 0.046)?
Its speed of sound is 1264.9 ± 2.1 m/s.

What about the speed of sound (308.15 K, x2 = 0.106) of the same compound?
The speed of sound was 1249.5 ± 2.1 m/s.

And the speed of sound (308.15 K, x2 = 0.212)?
The speed of sound was 1221.9 ± 2.1 m/s.

And the speed of sound (308.15 K, x2 = 0.299)?
Its speed of sound is 1198.5 ± 2.1 m/s.

And the speed of sound (308.15 K, x2 = 0.402)?
Its speed of sound is 1169.2 ± 2.1 m/s.

And the speed of sound (308.15 K, x2 = 0.503)?
Its speed of sound is 1144 ± 2.1 m/s.

What about the speed of sound (308.15 K, x2 = 0.6) of the same compound?
Its speed of sound is 1112.2 ± 2.1 m/s.

What about the speed of sound (308.15 K, x2 = 0.701) of the same compound?
The speed of sound was 1082.7 ± 2.1 m/s.

What about the speed of sound (308.15 K, x2 = 0.822) of the same compound?
Its speed of sound is 1045.6 ± 2.1 m/s.

What about the speed of sound (308.15 K, x2 = 0.899) of the same compound?
The speed of sound was 1021 ± 2.1 m/s.

What about the speed of sound (308.15 K, x2 = 0.948) of the same compound?
The speed of sound was 1005.2 ± 2.1 m/s.

And the mass density (308.15 K, x2 = 0)?
Its mass density is 853.622 ± 0.39 kg/m3.

What about the mass density (308.15 K, x2 = 0.046) of the same compound?
The mass density was 848.347 ± 0.41 kg/m3.

What about the mass density (308.15 K, x2 = 0.106) of the same compound?
Its mass density is 841.274 ± 0.43 kg/m3.

And the mass density (308.15 K, x2 = 0.212)?
Its mass density is 828.779 ± 0.44 kg/m3.

What about the mass density (308.15 K, x2 = 0.299) of the same compound?
Its mass density is 818.132 ± 0.46 kg/m3.

And the mass density (308.15 K, x2 = 0.402)?
Its mass density is 805.218 ± 0.48 kg/m3.

And the mass density (308.15 K, x2 = 0.503)?
The mass density was 793.77 ± 0.5 kg/m3.

And the mass density (308.15 K, x2 = 0.6)?
The mass density was 779.66 ± 0.52 kg/m3.

What about the mass density (308.15 K, x2 = 0.701) of the same compound?
The mass density was 766.192 ± 0.54 kg/m3.

And the mass density (308.15 K, x2 = 0.822)?
Its mass density is 749.497 ± 0.56 kg/m3.

What about the mass density (308.15 K, x2 = 0.899) of the same compound?
The mass density was 738.451 ± 0.58 kg/m3.

And the mass density (308.15 K, x2 = 0.948)?
Its mass density is 731.264 ± 0.59 kg/m3.

What about the speed of sound (310.65 K, x2 = 0) of the same compound?
Its speed of sound is 1266.5 ± 2.1 m/s.

What about the speed of sound (310.65 K, x2 = 0.046) of the same compound?
Its speed of sound is 1254.8 ± 2.1 m/s.

And the speed of sound (310.65 K, x2 = 0.106)?
The speed of sound was 1239.2 ± 2.1 m/s.

And the speed of sound (310.65 K, x2 = 0.212)?
The speed of sound was 1211.5 ± 2.1 m/s.

And the speed of sound (310.65 K, x2 = 0.299)?
Its speed of sound is 1188.1 ± 2.1 m/s.

And the speed of sound (310.65 K, x2 = 0.402)?
The speed of sound was 1158.6 ± 2.1 m/s.

What about the speed of sound (310.65 K, x2 = 0.503) of the same compound?
The speed of sound was 1133.2 ± 2.1 m/s.

And the speed of sound (310.65 K, x2 = 0.6)?
The speed of sound was 1101.4 ± 2.1 m/s.

And the speed of sound (310.65 K, x2 = 0.701)?
The speed of sound was 1071.8 ± 2.1 m/s.

What about the speed of sound (310.65 K, x2 = 0.822) of the same compound?
The speed of sound was 1034.6 ± 2.1 m/s.

What about the speed of sound (310.65 K, x2 = 0.899) of the same compound?
The speed of sound was 1009.8 ± 2.1 m/s.

And the speed of sound (310.65 K, x2 = 0.948)?
Its speed of sound is 993.9 ± 2.1 m/s.

And the mass density (310.65 K, x2 = 0)?
The mass density was 851.407 ± 0.39 kg/m3.

And the mass density (310.65 K, x2 = 0.046)?
The mass density was 846.119 ± 0.42 kg/m3.

What about the mass density (310.65 K, x2 = 0.106) of the same compound?
The mass density was 839.024 ± 0.43 kg/m3.

And the mass density (310.65 K, x2 = 0.212)?
The mass density was 826.493 ± 0.45 kg/m3.

What about the mass density (310.65 K, x2 = 0.299) of the same compound?
Its mass density is 815.815 ± 0.46 kg/m3.

And the mass density (310.65 K, x2 = 0.402)?
The mass density was 802.853 ± 0.48 kg/m3.

What about the mass density (310.65 K, x2 = 0.503) of the same compound?
The mass density was 791.367 ± 0.5 kg/m3.

And the mass density (310.65 K, x2 = 0.6)?
The mass density was 777.204 ± 0.52 kg/m3.

What about the mass density (310.65 K, x2 = 0.701) of the same compound?
Its mass density is 763.689 ± 0.54 kg/m3.

And the mass density (310.65 K, x2 = 0.822)?
Its mass density is 746.926 ± 0.57 kg/m3.

What about the mass density (310.65 K, x2 = 0.899) of the same compound?
Its mass density is 735.825 ± 0.58 kg/m3.

And the mass density (310.65 K, x2 = 0.948)?
Its mass density is 728.607 ± 0.59 kg/m3.

What about the speed of sound (313.15 K, x2 = 0) of the same compound?
Its speed of sound is 1256.3 ± 2.1 m/s.

What about the speed of sound (313.15 K, x2 = 0.046) of the same compound?
Its speed of sound is 1244.6 ± 2.1 m/s.

And the speed of sound (313.15 K, x2 = 0.106)?
The speed of sound was 1229 ± 2.1 m/s.

And the speed of sound (313.15 K, x2 = 0.212)?
The speed of sound was 1201 ± 2.1 m/s.

And the speed of sound (313.15 K, x2 = 0.299)?
The speed of sound was 1177.5 ± 2.1 m/s.

And the speed of sound (313.15 K, x2 = 0.402)?
Its speed of sound is 1148 ± 2.1 m/s.

What about the speed of sound (313.15 K, x2 = 0.503) of the same compound?
Its speed of sound is 1122.5 ± 2.1 m/s.

What about the speed of sound (313.15 K, x2 = 0.6) of the same compound?
Its speed of sound is 1090.5 ± 2.1 m/s.

What about the speed of sound (313.15 K, x2 = 0.701) of the same compound?
Its speed of sound is 1060.8 ± 2.1 m/s.

And the speed of sound (313.15 K, x2 = 0.822)?
The speed of sound was 1023.4 ± 2.1 m/s.

What about the speed of sound (313.15 K, x2 = 0.899) of the same compound?
The speed of sound was 998.53 ± 2.1 m/s.

And the speed of sound (313.15 K, x2 = 0.948)?
Its speed of sound is 982.63 ± 2.1 m/s.

And the mass density (313.15 K, x2 = 0)?
Its mass density is 849.186 ± 0.4 kg/m3.

What about the mass density (313.15 K, x2 = 0.046) of the same compound?
Its mass density is 843.886 ± 0.42 kg/m3.

And the mass density (313.15 K, x2 = 0.106)?
Its mass density is 836.773 ± 0.43 kg/m3.

What about the mass density (313.15 K, x2 = 0.212) of the same compound?
Its mass density is 824.202 ± 0.45 kg/m3.

What about the mass density (313.15 K, x2 = 0.299) of the same compound?
Its mass density is 813.486 ± 0.47 kg/m3.

And the mass density (313.15 K, x2 = 0.402)?
Its mass density is 800.48 ± 0.48 kg/m3.

What about the mass density (313.15 K, x2 = 0.503) of the same compound?
The mass density was 788.959 ± 0.5 kg/m3.

What about the mass density (313.15 K, x2 = 0.6) of the same compound?
The mass density was 774.736 ± 0.53 kg/m3.

What about the mass density (313.15 K, x2 = 0.701) of the same compound?
The mass density was 761.174 ± 0.55 kg/m3.

What about the mass density (313.15 K, x2 = 0.822) of the same compound?
The mass density was 744.341 ± 0.57 kg/m3.

And the mass density (313.15 K, x2 = 0.899)?
Its mass density is 733.188 ± 0.59 kg/m3.

And the mass density (313.15 K, x2 = 0.948)?
The mass density was 725.934 ± 0.6 kg/m3.

What about the speed of sound (315.65 K, x2 = 0) of the same compound?
Its speed of sound is 1246.1 ± 2.1 m/s.

And the speed of sound (315.65 K, x2 = 0.046)?
The speed of sound was 1234.5 ± 2.1 m/s.

And the speed of sound (315.65 K, x2 = 0.106)?
Its speed of sound is 1218.7 ± 2.1 m/s.

And the speed of sound (315.65 K, x2 = 0.212)?
Its speed of sound is 1190.8 ± 2.1 m/s.

What about the speed of sound (315.65 K, x2 = 0.299) of the same compound?
The speed of sound was 1166.9 ± 2.1 m/s.

What about the speed of sound (315.65 K, x2 = 0.402) of the same compound?
Its speed of sound is 1137.5 ± 2.1 m/s.
